Laboratory results from patent US9636409B2, “Enzyme and receptor modulation using covalent conjugates of alpha,alpha-disubstituted glycine esters” (GlaxoSmithKline Intellectual Property Development Limited, priority 2008, dated 2017).

Columns and labels:
[1] = test system: phosphorylation of MAPKAP-2 in HUT 78 cells; experiment: p38 MAP Kinase cellular assay: inhibition of phosphorylation of MAPKAP2 in HUT 78 cells; assay type: cell-based; conditions: Table 2
Experimental: p38 MAP Kinase Cellular Assay: Inhibition of Phosphorylation of MAPKAP2
U937 or HUT78 cells were plated in RPMI 1640, and were incubated at 37° C., 5% CO2 for 18 hours. 10 mM stocks of compounds were diluted media/0.1% DMSO to give a log or semi-log dilution series. The wells for ‘no treatment’ and ‘anisomycin’ were treated with 0.1% DMSO only. The cells were incubated at 37° C., 5% CO2 for a further 4 hours. Anisomycin was added to all wells except ‘no treatment’ at a final concentration of 10 μM. The cells were incubated at 37° C., 5% CO2 for 30 minutes before harvest. Plates were stood on ice whilst harvesting, and all following steps were carried out at 4° C. The cells were pelleted at 1000 rpm for 10 minutes at 4° C., the media aspirated, and the pellet washed with cold PBS. The pellets were lysed in 120 μl of SDS lysis buffer (62.5 mM Tris, pH 6.8, 2% SDS, 10% glycerol, 50 mM DTT, with protease inhibitors and phosphatase inhibitors added according to the manufacturers' recommendations). After 30 minutes on ice, the samples were sonicated for 5 seconds before centrifugation at 13,000 rpm 4° C. for 10 minutes to remove cell debris. 10 μl of the resulting gel samples were loaded per lane on NOVEX 4-12% Bis-Tris MOPS gels. Membranes from western transfer of gels were blotted with anti-phospho MAPKAP2, anti-phospho HSP27 and anti GAPDH according to the manufacturers' Instructions. Signal was visualised using HRP-Hnked anti-rabbit or anti-mouse antibodies, ECL reagent and ECL film. IC50 values for the various compounds were visualised from the resulting photographic images, using both band-shift and signal intensity.

[2] = test system: cell lysate from U937 cells; experiment: Broken cell carboxylesterase assay (U937 cell extract); assay type: in vitro ADME; conditions: ester 2.5 μM
Experimental: Broken Cell Carboxylesterase Assay
Any given compound of the present invention wherein ester conjugate according to the invention may be tested to determine whether it meets the requirement that it be hydrolysed by intracellular esterases, by testing in the following assay.
Preparation of Cell Extract
U937 or HCT 116 tumour cells (˜10^9) were washed in 4 volumes of Dulbeccos PBS (˜1 liter) and pelleted at 525 g for 10 min at 4° C. This was repeated twice and the final cell pellet was re-suspended in 35 mL of cold homogenising buffer (Trizma 10 mM, NaCl 130 mM, CaCl2 0.5 mM pH 7.0 at 25° C.). Homogenates were prepared by nitrogen cavitation (700 psi for 50 min at 4° C.). The homogenate was kept on ice and supplemented with a cocktail of inhibitors at final concentrations of: • Leupeptin 1 μM • Aprotinin 0.1 μM • E64 8 μM • Pepstatin 1.5 μM • Bestatin 162 μM • Chymostatin 33 μM
After clarification of the cell homogenate by centrifugation at 525 g for 10 min, the resulting supernatant was used as a source of esterase activity and was stored at −80° C. until required. […]
Hydrolysis of esters to the corresponding carboxylic acids can be measured using the cell extract, prepared as above. […] After centrifugation at 12000 g for 5 min, samples were analysed for the ester and its corresponding carboxylic acid at room temperature by LCMS (Sciex API 3000, HP1100 binary pump, CTC PAL). […]

CC(C)(NCCc1ccc(-n2c(N)c(C(=O)c3ccc(F)cc3F)ccc2=O)cc1)C(=O)OC1CCCC1 [Example 1]
IC50 ([1]; Homo sapiens, HuT78, HUT 78 non-monocyte cell line): 1000 nM
Ratio IC50s in HUT 78 to U937 cells ([1]; MAPKAP-2 phosphorylation IC50s): 100
Cleavage by cell lysate from U937 cells [2]: 165 pg/mL/min
